These results are taken from US11098010B2 (priority 2017, dated 2021).

Counter-ions that a name gives are not always drawn. Like-named read-outs stand apart in the source and are kept apart here.

The test has as its system HBV rcDNA in HepDE19 cells. Nature of the test: HepDE19 assay with bDNA quantitation of HBV rcDNA. Type of test: cell-based, hepatitis B virus (HBV).
[1] abbreviates: Hepatitis B virus, HepDE19, 168 h, read-out: DE-19 bDNA EC50 (μM), HepDE19 cells, inhibition of rcDNA formation, 7 day incubation, top concentration 25 μM.
[2] abbreviates: Hepatitis B virus, HepDE19, 168 h, HepDE19 cells, inhibition of rcDNA formation, 7 day incubation, top concentration 25 μM, read-out: DE-19 bDNA EC50.

With `O=C(N[C@H]1CCc2c(C(=O)Nc3ccc(F)c(Cl)c3)ccc(F)c21)OCc1cc(Cl)ccn1` [Compound 80, O-(4-Chloropyridin-2-yl)methyl, N—(S)-(4-((3-chloro-4-fluorophenyl)carbamoyl)-7-fluoro-2,3-dihydro-1H-inden-1-yl) carbamate Hydrochloride], the EC50 under setting [1] came out at 0.33 µM. Take `O=C(Nc1ccc(F)c(Cl)c1)c1ccc(F)c2c1CC[C@@H]2O` [Compound 81, (S)—N-(3-Chloro-4-fluorophenyl)-7-fluoro-1-hydroxy-2,3-dihydro-1H-indene-4-carboxamide]: the EC50 under setting [2] is 0.67 µM. In the case of `O=C(N[C@H]1CCc2c(C(=O)Nc3ccc(F)c(Cl)c3)ccc(F)c21)OCc1ccon1` [Compound 82, O-Isoxazol-3-ylmethyl, N—(S)-(4-((3-chloro-4-fluorophenyl)carbamoyl)-7-fluoro-2,3-dihydro-1H-inden-1-yl) carbamate], the EC50 under setting [1] was found to be 0.13 µM.

As for `O=C(N[C@H]1CCc2c(C(=O)Nc3ccc(F)c(Cl)c3)ccc(F)c21)OCCc1ccccn1` [Compound 83, O-2-(Pyridin-2-yl)ethyl, N—(S)-(4-((3-chloro-4-fluorophenyl)carbamoyl)-7-fluoro-2,3-dihydro-1H-inden-1-yl) carbamate Hydrochloride], the EC50 under setting [1] came to 0.18 µM. Turning to `O=C(N[C@H]1CCc2c(C(=O)Nc3ccc(F)c(Cl)c3)ccc(F)c21)OCC(F)F` [Compound 84, O-2,2-Difluoroethyl, N—(S)-(4-((3-chloro-4-fluorophenyl)carbamoyl)-7-fluoro-2,3-dihydro-1H-inden-1-yl) carbamate], the EC50 under setting [2] is 0.17 µM. Same read-out and setting: to `O=C(N[C@H]1CCc2c(C(=O)Nc3ccc(F)c(Cl)c3)ccc(F)c21)OCc1ccncn1` [Compound 85, O-Pyrimidin-4-ylmethyl, N—(S)-(4-((3-chloro-4-fluorophenyl)carbamoyl)-7-fluoro-2,3-dihydro-1H-inden-1-yl) carbamate] belongs 0.58 µM. For `O=C(N[C@H]1CCc2c(C(=O)Nc3ccc(F)c(Cl)c3)ccc(F)c21)OCCCN1CCCC1=O` [Compound 86, O-3-(2-Oxopyrrolidin-1-yl)propyl, N—(S)-(4-((3-chloro-4-fluorophenyl)carbamoyl)-7-fluoro-2,3-dihydro-1H-inden-1-yl) carbamate], under setting [1], the EC50 amounted to 0.43 µM. As to `Cc1cccn2cc(COC(=O)N[C@H]3CCc4c(C(=O)Nc5ccc(F)c(Cl)c5)ccc(F)c43)nc12` [Compound 87, O-(8-Methylimidazo[1,2-a]pyridin-2-yl)methyl, N—(S)-(4-((3-chloro-4-fluorophenyl)carbamoyl)-7-fluoro-2,3-dihydro-1H-inden-1-yl) carbamate Hydrochloride], the EC50 under setting [1] amounted to 0.2 µM. Same read-out and setting: to `O=C(N[C@H]1CCc2c(C(=O)Nc3ccc(F)c(Cl)c3)ccc(F)c21)OCC(F)(F)F` [Compound 88, O-2,2,2-Trifluoroethyl, N—(S)-(4-((3-chloro-4-fluorophenyl)carbamoyl)-7-fluoro-2,3-dihydro-1H-inden-1-yl) carbamate] belongs 0.21 µM. With `CNC(=O)O[C@H]1CCc2c(C(=O)Nc3ccc(F)c(Cl)c3)ccc(F)c21` [Compound 89, O—(S)-4-((3-Chloro-4-fluorophenyl)carbamoyl)-7-fluoro-2,3-dihydro-1H-inden-1-yl, N-methyl Carbamate], under setting [2], the EC50 was determined as 0.56 µM.

Turning to `O=C(OCc1ccccn1)O[C@H]1CCc2c(C(=O)Nc3ccc(F)c(Cl)c3)ccc(F)c21` [Compound 90, (S)-4-((3-Chloro-4-fluorophenyl)carbamoyl)-7-fluoro-2,3-dihydro-1H-inden-1-yl (pyridin-2-ylmethyl) carbonate], the EC50 under setting [2] was 1.9 µM. Same read-out and setting: then `O=C(N[C@H]1CCc2c(C(=O)Nc3ccc(F)c(Cl)c3)ccc(F)c21)OCc1cncs1` [Compound 91, O-Thiazol-5-ylmethyl, N—(S)-(4-((3-chloro-4-fluorophenyl)carbamoyl)-7-fluoro-2,3-dihydro-1H-inden-1-yl) carbamate], with 0.07 µM; and `O=C(N[C@H]1CCc2c(C(=O)Nc3ccc(F)c(Cl)c3)ccc(F)c21)OCc1nccs1` [Compound 92, O-Thiazol-2-ylmethyl, N—(S)-(4-((3-chloro-4-fluorophenyl)carbamoyl)-7-fluoro-2,3-dihydro-1H-inden-1-yl) carbamate], with 0.18 µM. Regarding `O=C(N[C@H]1CCc2c(C(=O)Nc3ccc(F)c(Cl)c3)ccc(F)c21)OCc1cocn1` [Compound 93, O-Oxazol-4-ylmethyl, N—(S)-(4-((3-chloro-4-fluorophenyl)carbamoyl)-7-fluoro-2,3-dihydro-1H-inden-1-yl) carbamate], under setting [2], the EC50 turned out to be 0.49 µM. Same read-out and setting: to `O=C(N[C@H]1CCc2c(C(=O)Nc3ccc(F)c(Cl)c3)ccc(F)c21)OCc1ncco1` [Compound 94, O-Oxazol-2-ylmethyl, N—(S)-(4-((3-chloro-4-fluorophenyl)carbamoyl)-7-fluoro-2,3-dihydro-1H-inden-1-yl) carbamate] belongs 0.07 µM; to `O=C(N[C@H]1CCc2c(C(=O)Nc3ccc(F)c(Cl)c3)ccc(F)c21)OCc1cnco1` [Compound 95, O-Oxazol-5-ylmethyl, N—(S)-(4-((3-chloro-4-fluorophenyl)carbamoyl)-7-fluoro-2,3-dihydro-1H-inden-1-yl) carbamate], 0.06 µM. `O=C(N[C@H]1CCc2c(C(=O)Nc3ccc(F)c(Cl)c3)ccc(F)c21)OCCn1ccnc1` [Compound 96, O-2-(1H-Imidazol-1-yl)ethyl, N—(S)-(4-((3-chloro-4-fluorophenyl)carbamoyl)-7-fluoro-2,3-dihydro-1H-inden-1-yl) carbamate Hydrochloride]: the EC50 under setting [1] turned out to be 0.3 µM.

Take `O=C(Nc1ccc(F)c(Cl)c1)c1ccc(F)c2c1CC[C@@H]2Nc1ccccn1` [Compound 97, (S)—N-(3-Chloro-4-fluorophenyl)-7-fluoro-1-(pyridin-2-ylamino)-2,3-dihydro-1H-indene-4-carboxamide Hydrochloride]: under setting [1], the EC50 worked out at 0.22 µM.

`Cn1ccc(C(=O)N[C@H]2CCc3c(C(=O)Nc4ccc(F)c(Cl)c4)ccc(F)c32)n1` [Compound 98, (S)—N-(4-((3-Chloro-4-fluorophenyl)carbamoyl)-7-fluoro-2,3-dihydro-1H-inden-1-yl)-1-methyl-1H-pyrazole-3-carboxamide]: the EC50 under setting [2] stood at 0.82 µM. For the compound `O=C(N[C@H]1CCc2c(C(=O)Nc3ccc(F)c(Cl)c3)ccc(F)c21)OCCOc1ccccc1` [Compound 99, O-2-Phenoxyethyl, N—(S)-(4-((3-chloro-4-fluorophenyl)carbamoyl)-7-fluoro-2,3-dihydro-1H-inden-1-yl) carbamate], the EC50 under setting [1] was determined as 1.22 µM. For `Cn1nccc1C(=O)N[C@H]1CCc2c(C(=O)Nc3ccc(F)c(Cl)c3)ccc(F)c21` [Compound 100, (S)—N-(4-((3-Chloro-4-fluorophenyl)carbamoyl)-7-fluoro-2,3-dihydro-1H-inden-1-yl)-1-methyl-1H-pyrazole-5-carboxamide], under setting [2], the EC50 was 0.74 µM. For `Cn1ccc(S(=O)(=O)N[C@H]2CCc3c(C(=O)Nc4ccc(F)c(Cl)c4)ccc(F)c32)n1` [Compound 101, (S)—N-(3-Chloro-4-fluorophenyl)-7-fluoro-1-((1-methyl-1H-pyrazole)-3-sulfonamido)-2,3-dihydro-1H-indene-4-carboxamide], under setting [2], the EC50 came to 0.72 µM. As to `Cn1cnc(COC(=O)N[C@H]2CCc3c(C(=O)Nc4ccc(F)c(Cl)c4)ccc(F)c32)n1` [Compound 102, O-(1-Methyl-1H-1,2,4-triazol-3-yl)methyl, N—(S)-(4-((3-chloro-4-fluorophenyl)carbamoyl)-7-fluoro-2,3-dihydro-1H-inden-1-yl) carbamate], under setting [2], the EC50 was 0.07 µM.

Regarding `Cn1nccc1COC(=O)N[C@H]1CCc2c(C(=O)Nc3ccc(F)c(Cl)c3)ccc(F)c21` [Compound 103, O-(1-Methyl-1H-pyrazol-5-yl)methyl, N—(S)-(4-((3-chloro-4-fluorophenyl)carbamoyl)-7-fluoro-2,3-dihydro-1H-inden-1-yl) carbamate], the EC50 under setting [2] came out at 0.1 µM. Turning to `NC(=O)c1ccnc(N[C@H]2CCc3c(C(=O)Nc4ccc(F)c(Cl)c4)ccc(F)c32)n1` [Compound 104, (S)-2-((4-((3-Chloro-4-fluorophenyl)carbamoyl)-7-fluoro-2,3-dihydro-1H-inden-1-yl)amino)pyrimidine-4-carboxamide], under setting [1], the EC50 was found to be 0.16 µM. Same read-out and setting: then `Cc1ncsc1CCOC(=O)N[C@H]1CCc2c(C(=O)Nc3ccc(F)c(Cl)c3)ccc(F)c21` [Compound 105, O-2-(4-Methylthiazol-5-yl)ethyl, N—(S)-(4-((3-chloro-4-fluorophenyl)carbamoyl)-7-fluoro-2,3-dihydro-1H-inden-1-yl) carbamate], with 0.19 µM.

In the case of `CC(C)n1nccc1COC(=O)N[C@H]1CCc2c(C(=O)Nc3ccc(F)c(Cl)c3)ccc(F)c21` [Compound 106, O-(1-Isopropyl-1H-pyrazol-5-yl)methyl, N—(S)-(4-((3-chloro-4-fluorophenyl)carbamoyl)-7-fluoro-2,3-dihydro-1H-inden-1-yl) carbamate], the EC50 (HepDE19 cells, inhibition of rcDNA formation, 7 day incubation, top concentration 25 μM, read-out: DE-19 bDNA EC50) amounted to 0.17 µM. Turning to `COc1ccc(COC(=O)N[C@H]2CCc3c(C(=O)Nc4ccc(F)c(Cl)c4)ccc(F)c32)nc1` [Compound 107, O-(5-Methoxypyridin-2-yl)methyl, N—(S)-(4-((3-chloro-4-fluorophenyl)carbamoyl)-7-fluoro-2,3-dihydro-1H-inden-1-yl) carbamate Hydrochloride], the EC50 under setting [1] stood at 1.2 µM. In the case of `O=C(N[C@H]1CCc2c(C(=O)Nc3ccc(F)c(Cl)c3)ccc(F)c21)OC[C@@H]1CCCN1CC(F)(F)F` [Compound 108, O-[(2S)-1-(2,2,2-Trifluoroethyl)pyrrolidin-2-yl]methyl, N-[(1S)-4-[(3-chloro-4-fluorophenyl)carbamoyl]-7-fluoro-2,3-dihydro-1H-inden-1-yl]carbamate Hydrochloride], the EC50 under setting [1] was 0.72 µM.
